In patent US20220378794A1 (Sinopia Biosciences, Inc., priority 2019, published 2022):

Test system: chronic low-dose MPTP lesioned non-human primate model of cognitive impairment
Settings: levodopa 5-20 mg/kg (groups 6-8); in particular shorter delay periods DP1 and DP2; vs vehicle

N[C@@H](Cc1ccc(O)c(O)c1)C(=O)O [levodopa]
accuracy of VDR test: trend toward completing the VDR test with lower accuracy
